Active and inactive are the calls of the source. No cut-off for these calls is given here.
Columns and labels:
RAW264.7 [1] = assay: Antiinflammatory activity in mouse RAW264.7 cells assessed as inhibition of LPS-induced nitric oxide production at 10 uM preincubated for 30 mins followed by LPS stimulation measured after 24 hrs by Griess assay relative to control; format: functional
RAW264.7 [2] = assay: Antiinflammatory activity in mouse RAW264.7 cells assessed as inhibition of LPS-induced nitric oxide production preincubated for 30 mins followed by LPS stimulation measured after 24 hrs by Griess assay; format: functional, cell-based

Compound	IC50 (RAW264.7 [2])	inhibition at 10 µM (RAW264.7 [1])	inhibition (RAW264.7 [1])
C/C=C(/C)C(=O)O[C@@H]1[C@@H](O)[C@H](O)[C@@H](OC(=O)/C(C)=C\C)[C@@H](OC(=O)/C(C)=C\C)[C@H]1O			Active
C/C=C(/C)C(=O)O[C@@H]1[C@@H](O)[C@@H](OC(=O)/C=C(\C)CC)[C@H](O)[C@@H](O)[C@@H]1OC(=O)/C(C)=C\C	8.4 µM		Active
C/C=C(/C)C(=O)O[C@@H]1[C@@H](O)[C@H](OC(=O)/C(C)=C\C)[C@H](OC(=O)/C(C)=C\C)[C@@H](O)[C@H]1OC(=O)/C(C)=C\C	7 µM	39.7%	
C/C=C(/C)C(=O)O[C@H]1[C@H](O)[C@H](O)[C@H](OC(=O)/C=C(\C)CC)[C@@H](O)[C@@H]1OC(=O)/C(C)=C\C			Active
Cc1ccc(-c2cc(C(F)(F)F)nn2-c2ccc(S(N)(=O)=O)cc2)cc1 [CELECOXIB]	1.6 µM	59.2%	
C/C=C(/C)C(=O)O[C@@H]1[C@@H](O)[C@@H](OC(=O)/C(C)=C\C)[C@@H](OC(=O)/C(C)=C\C)[C@H](O)[C@H]1OC(=O)/C(C)=C\C	9.8 µM	42.1%	
C/C=C(/C)C(=O)O[C@H]1[C@@H](O)[C@@H](OC(C)=O)[C@H](OC(=O)/C(C)=C\C)[C@@H](OC(=O)/C(C)=C\C)[C@@H]1O		38.3%	

Continued, in another order:

IC50 (RAW264.7 [2])	Compound	inhibition at 10 µM (RAW264.7 [1])	inhibition (RAW264.7 [1])
7.6 µM	C/C=C(/C)C(=O)O[C@@H]1[C@@H](O)[C@H](OC(=O)/C(C)=C\C)[C@@H](OC(=O)/C(C)=C\C)[C@H](O)[C@@H]1OC(=O)C(C)C	47.2%	
9.9 µM	C/C=C(/C)C(=O)O[C@H]1[C@H](OC(=O)/C(C)=C\C)[C@H](OC(=O)/C(C)=C\C)[C@@H](O)[C@@H](OC(=O)/C(C)=C\C)[C@@H]1O	59.6%	
9.6 µM	C/C=C(/C)C(=O)O[C@@H]1[C@@H](O)[C@H](OC(=O)/C(C)=C\C)[C@@H](OC(=O)/C(C)=C\C)[C@H](O)[C@@H]1OC(C)=O		Active
8.9 µM	C/C=C(/C)C(=O)O[C@H]1[C@H](O)[C@@H](O)[C@H](OC(=O)/C(C)=C\C)[C@H](OC(=O)/C(C)=C\C)[C@H]1O		Active
19 µM	C/C=C(/C)C(=O)O[C@@H]1[C@@H](O)[C@H](OC(=O)/C(C)=C\C)[C@@H](OC(=O)/C(C)=C\C)[C@@H](OC(=O)/C(C)=C\C)[C@H]1O	47.9%	
23.4 µM	C/C=C(/C)C(=O)O[C@@H]1[C@@H](O)[C@H](OC(=O)/C(C)=C\C)[C@@H](OC(=O)/C(C)=C\C)[C@H](O)[C@@H]1O	37.4%	
11.9 µM	C/C=C(/C)C(=O)O[C@@H]1[C@H](O)[C@@H](OC(C)=O)[C@@H](OC(=O)/C(C)=C\C)[C@H](OC(=O)/C(C)=C\C)[C@H]1O	43.4%	
7.1 µM	C/C=C(/C)C(=O)O[C@@H]1[C@H](OC(C)=O)[C@@H](OC(C)=O)[C@@H](OC(=O)/C(C)=C\C)[C@H](O)[C@H]1OC(=O)/C(C)=C\C		Active

Source: ChEMBL document CHEMBL3632604, “Anti-inflammatory Inositol Derivatives from the Whole Plant of Inula cappa” (J Nat Prod, 2015)
